# Values quoted from earlier work, collected in US20050129759A1, “Sustained release compositions and controlled delivery method” (priority 2003, published 2005).
# Settings: not entrapped; stated as typical behaviour
compound,measurement,value
NC(N)=O.OO [urea peroxide],stability of free active agent,"very unstable, shock sensitive, and deteriorates very quickly on contact with air humidity"
